According to patent US20220202799A1, “PHARMACEUTICAL FORMULATIONS CONTAINING P2Y14 ANTAGONISTS” (priority 2019, published 2022):
Several values for one entry are separate records, joined by “and”; a condition that tells them apart may be missing. Equal entries are not always repeated. Where two headings read alike, the source gives them in different places.

Test: Plasma concentrations and TK parameters, 72-hour continuous intravenous infusion
Type: in vivo, Sprague-Dawley rats
Conditions: for Accumulation ratio (C72h/C24h) / Css / Female/Male C72h / Accumulation ratio / half-life: 72 hours of intravenous infusion; for half-life / concentration at 24 h / concentration at 48 h / concentration at 72 h / concentration at 78 h / concentration at 84 h / concentration at 96 h: Sprague-Dawley, rat, plasma; for Plasma concentration, individual animal / concentration at 24 h / concentration at 48 h / concentration at 72 h / concentration at 78 h / concentration at 84 h / concentration at 96 h: female Sprague-Dawley rats; for concentration at 24 h / concentration at 48 h / concentration at 72 h / concentration at 78 h / concentration at 84 h / concentration at 96 h: female, iv
Protocol: The safety and pharmacokinetics of PPTN (KB-1801) in rats receiving continuous intravenous injections of SBECD-containing solutions were analyzed. Three cohorts of six male and six female rats each were given continuous intravenous infusion of PPTN (KB-1801) at 10 mg/kg/day, 30 mg/kg/day or 100 mg/kg/day in a dosing solution containing PPTN at 0.25 mg/mL, 0.75 mg/mL or 2.5 mg/mL and SBECD at about 3.8%. Dosing volume was 40 mIkg/day. [table]

[1] = Female, Group 16, 100 mg/kg/day

O=C(O)c1cc(-c2ccc(C3CCNCC3)cc2)c2ccc(-c3ccc(C(F)(F)F)cc3)cc2c1 [KB-1801, 4-[4-(piperidin-4-yl)phenyl]-7-[4-(trifluoromethyl)phenyl]-2-naphthoic acid]
Accumulation ratio (C72h/C24h) (Female, Group14, 10 mg/kg/day): 0.91
Css (Female, Group14, 10 mg/kg/day): 606.0 ± 52.0 ng/mL
Accumulation ratio (C72h/C24h) (Female, Group 15, 30 mg/kg/day): 0.84
Css (Female, Group 15, 30 mg/kg/day): 2037.0 ± 433.7 ng/mL
Accumulation ratio (C72h/C24h) [1]: 0.88
Css [1]: 6595.6 ± 696.2 ng/mL
Female/Male C72h (Group14, 10 mg/kg/day): 1.05
Female/Male C72h (Group 15, 30 mg/kg/day): 1.18
Female/Male C72h (Group 16, 100 mg/kg/day): 0.70
Accumulation ratio (Male, Group14, 10 mg/kg/day): 0.74
Css (Male, Group14, 10 mg/kg/day): 636.4 ± 96.8 ng/mL
Accumulation ratio (Male, Group 15, 30 mg/kg/day): 0.86
Css (Male, Group 15, 30 mg/kg/day): 1974.4 ± 240.2 ng/mL
Accumulation ratio (Male, Group 16, 100 mg/kg/day): 1.03
Css (Male, Group 16, 100 mg/kg/day): 7774.6 ± 1241.3 ng/mL
half-life (Female, Group14, 10 mg/kg/day): 6.67 ± 1.21 h
half-life (Female, Group 15, 30 mg/kg/day): 7.06 ± 0.93 h
half-life [1]: 6.64 ± 0.36 h
half-life (Male, Group14, 10 mg/kg/day): 7.91 ± 1.06 h
half-life (Male, Group 15, 30 mg/kg/day): 8.29 ± 0.93 h
half-life (Male, Group 16, 100 mg/kg/day): 8.83 ± 3.33 h
Plasma concentration, individual animal (72-hour intravenous infusion at 10 mg/kg/day, time 24 h, 10 mg/kg/day): 784.2 ng/mL and 685.7 ng/mL
Plasma concentration, individual animal (72-hour intravenous infusion at 10 mg/kg/day, time 48 h, 10 mg/kg/day): 650.5 ng/mL and 588.8 ng/mL
Plasma concentration, individual animal (72-hour intravenous infusion at 10 mg/kg/day, time 72 h, 10 mg/kg/day): 756.4 ng/mL and 602.0 ng/mL
Plasma concentration, individual animal (72-hour intravenous infusion at 10 mg/kg/day, time 78 h, 10 mg/kg/day): 131.4 ng/mL and 160.1 ng/mL
Plasma concentration, individual animal (72-hour intravenous infusion at 10 mg/kg/day, time 84 h, 10 mg/kg/day): 103.5 ng/mL and 64.3 ng/mL
Plasma concentration, individual animal (72-hour intravenous infusion at 10 mg/kg/day, time 96 h, 10 mg/kg/day): 22.9 ng/mL and 15.3 ng/mL
Plasma concentration, individual animal (72-hour intravenous infusion at 30 mg/kg/day, time 24 h, 30 mg/kg/day): 2027.1 ng/mL and 2581.5 ng/mL
Plasma concentration, individual animal (72-hour intravenous infusion at 30 mg/kg/day, time 48 h, 30 mg/kg/day): 1661.0 ng/mL and 1763.6 ng/mL
Plasma concentration, individual animal (72-hour intravenous infusion at 30 mg/kg/day, time 72 h, 30 mg/kg/day): 1397.7 ng/mL and 2300.3 ng/mL
Plasma concentration, individual animal (72-hour intravenous infusion at 30 mg/kg/day, time 78 h, 30 mg/kg/day): 449.3 ng/mL and 585.0 ng/mL
Plasma concentration, individual animal (72-hour intravenous infusion at 30 mg/kg/day, time 84 h, 30 mg/kg/day): 453.1 ng/mL and 160.2 ng/mL and 306.2 ng/mL
Plasma concentration, individual animal (72-hour intravenous infusion at 30 mg/kg/day, time 96 h, 30 mg/kg/day): 75.6 ng/mL and 115.3 ng/mL
Plasma concentration, individual animal (72-hour intravenous infusion at 100 mg/kg/day, time 24 h, 100 mg/kg/day): 6709.0 ng/mL and 8238.2 ng/mL
Plasma concentration, individual animal (72-hour intravenous infusion at 100 mg/kg/day, time 48 h, 100 mg/kg/day): 5872.0 ng/mL and 8226.5 ng/mL
Plasma concentration, individual animal (72-hour intravenous infusion at 100 mg/kg/day, time 72 h, 100 mg/kg/day): 6680.1 ng/mL and 6734.5 ng/mL
Plasma concentration, individual animal (72-hour intravenous infusion at 100 mg/kg/day, time 78 h, 100 mg/kg/day): 1454.4 ng/mL and 2119.8 ng/mL
Plasma concentration, individual animal (72-hour intravenous infusion at 100 mg/kg/day, time 84 h, 100 mg/kg/day): 1075.5 ng/mL and 1046.1 ng/mL
Plasma concentration, individual animal (72-hour intravenous infusion at 100 mg/kg/day, time 96 h, 100 mg/kg/day): 211.8 ng/mL and 342.6 ng/mL
concentration at 24 h (10 mg/kg/day, 72-hour intravenous infusion at 10 mg/kg/day, time 24 h, read-out: Plasma concentration, Mean): 688 ng/mL
concentration at 24 h (10 mg/kg/day, 72-hour intravenous infusion at 10 mg/kg/day, time 24 h, read-out: Plasma concentration, individual animal): 595 ng/mL
concentration at 48 h (10 mg/kg/day, 72-hour intravenous infusion at 10 mg/kg/day, time 48 h, read-out: Plasma concentration, Mean): 654 ng/mL
concentration at 48 h (10 mg/kg/day, 72-hour intravenous infusion at 10 mg/kg/day, time 48 h, read-out: Plasma concentration, individual animal): 722 ng/mL
concentration at 72 h (10 mg/kg/day, 72-hour intravenous infusion at 10 mg/kg/day, time 72 h, read-out: Plasma concentration, Mean): 624 ng/mL
concentration at 72 h (10 mg/kg/day, 72-hour intravenous infusion at 10 mg/kg/day, time 72 h, read-out: Plasma concentration, individual animal): 514 ng/mL
concentration at 78 h (10 mg/kg/day, 72-hour intravenous infusion at 10 mg/kg/day, time 78 h, read-out: Plasma concentration, Mean): 147 ng/mL
concentration at 78 h (10 mg/kg/day, 72-hour intravenous infusion at 10 mg/kg/day, time 78 h, read-out: Plasma concentration, individual animal): 150 ng/mL
concentration at 84 h (10 mg/kg/day, 72-hour intravenous infusion at 10 mg/kg/day, time 84 h, read-out: Plasma concentration, Mean): 80.9 ng/mL
concentration at 84 h (10 mg/kg/day, 72-hour intravenous infusion at 10 mg/kg/day, time 84 h, read-out: Plasma concentration, individual animal): 74.8 ng/mL
concentration at 96 h (10 mg/kg/day, 72-hour intravenous infusion at 10 mg/kg/day, time 96 h, read-out: Plasma concentration, Mean): 22.5 ng/mL
concentration at 96 h (10 mg/kg/day, 72-hour intravenous infusion at 10 mg/kg/day, time 96 h, read-out: Plasma concentration, individual animal): 29.3 ng/mL
concentration at 24 h (30 mg/kg/day, 72-hour intravenous infusion at 30 mg/kg/day, time 24 h, read-out: Plasma concentration, Mean): 2340 ng/mL
concentration at 24 h (30 mg/kg/day, 72-hour intravenous infusion at 30 mg/kg/day, time 24 h, read-out: Plasma concentration, individual animal): 2420 ng/mL
concentration at 48 h (30 mg/kg/day, 72-hour intravenous infusion at 30 mg/kg/day, time 48 h, read-out: Plasma concentration, Mean): 2210 ng/mL
concentration at 48 h (30 mg/kg/day, 72-hour intravenous infusion at 30 mg/kg/day, time 48 h, read-out: Plasma concentration, individual animal): 3220 ng/mL
concentration at 72 h (30 mg/kg/day, 72-hour intravenous infusion at 30 mg/kg/day, time 72 h, read-out: Plasma concentration, Mean): 1970 ng/mL
concentration at 72 h (30 mg/kg/day, 72-hour intravenous infusion at 30 mg/kg/day, time 72 h, read-out: Plasma concentration, individual animal): 2210 ng/mL
concentration at 78 h (30 mg/kg/day, 72-hour intravenous infusion at 30 mg/kg/day, time 78 h, read-out: Plasma concentration, Mean): 544 ng/mL
concentration at 78 h (30 mg/kg/day, 72-hour intravenous infusion at 30 mg/kg/day, time 78 h, read-out: Plasma concentration, individual animal): 597 ng/mL
concentration at 84 h (30 mg/kg/day, 72-hour intravenous infusion at 30 mg/kg/day, time 84 h, read-out: Plasma concentration, Mean): 306 ng/mL
concentration at 96 h (30 mg/kg/day, 72-hour intravenous infusion at 30 mg/kg/day, time 96 h, read-out: Plasma concentration, Mean): 90.8 ng/mL
concentration at 96 h (30 mg/kg/day, 72-hour intravenous infusion at 30 mg/kg/day, time 96 h, read-out: Plasma concentration, individual animal): 81.6 ng/mL
concentration at 24 h (100 mg/kg/day, 72-hour intravenous infusion at 100 mg/kg/day, time 24 h, read-out: Plasma concentration, Mean): 7740 ng/mL
concentration at 24 h (100 mg/kg/day, 72-hour intravenous infusion at 100 mg/kg/day, time 24 h, read-out: Plasma concentration, individual animal): 8270 ng/mL
concentration at 48 h (100 mg/kg/day, 72-hour intravenous infusion at 100 mg/kg/day, time 48 h, read-out: Plasma concentration, Mean): 6720 ng/mL
